Target: wild type c-kit (Homo sapiens (Human), UniProt P10721)
Assay: PathScan phospho c-kit (Tyr719) sandwich ELISA in SCF-stimulated M-07e cells (pKIT assay)
Type: cell-based
Conditions: ELISA assay (values not marked *)
Method in brief: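 Serum- and GM-CSF-starved M-07e cells (4 h) pretreated 60 min at 37 °C with an 8-point compound series in duplicate (0.25% DMSO), then stimulated with human SCF (500 ng/mL stock) 10 min at room temperature. Lysate c-kit Tyr719 phosphorylation quantified by sandwich ELISA with TMB read-out; IC50 from 4-parameter logistic fit.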

Sequence of wild type c-kit (P10721 26-976): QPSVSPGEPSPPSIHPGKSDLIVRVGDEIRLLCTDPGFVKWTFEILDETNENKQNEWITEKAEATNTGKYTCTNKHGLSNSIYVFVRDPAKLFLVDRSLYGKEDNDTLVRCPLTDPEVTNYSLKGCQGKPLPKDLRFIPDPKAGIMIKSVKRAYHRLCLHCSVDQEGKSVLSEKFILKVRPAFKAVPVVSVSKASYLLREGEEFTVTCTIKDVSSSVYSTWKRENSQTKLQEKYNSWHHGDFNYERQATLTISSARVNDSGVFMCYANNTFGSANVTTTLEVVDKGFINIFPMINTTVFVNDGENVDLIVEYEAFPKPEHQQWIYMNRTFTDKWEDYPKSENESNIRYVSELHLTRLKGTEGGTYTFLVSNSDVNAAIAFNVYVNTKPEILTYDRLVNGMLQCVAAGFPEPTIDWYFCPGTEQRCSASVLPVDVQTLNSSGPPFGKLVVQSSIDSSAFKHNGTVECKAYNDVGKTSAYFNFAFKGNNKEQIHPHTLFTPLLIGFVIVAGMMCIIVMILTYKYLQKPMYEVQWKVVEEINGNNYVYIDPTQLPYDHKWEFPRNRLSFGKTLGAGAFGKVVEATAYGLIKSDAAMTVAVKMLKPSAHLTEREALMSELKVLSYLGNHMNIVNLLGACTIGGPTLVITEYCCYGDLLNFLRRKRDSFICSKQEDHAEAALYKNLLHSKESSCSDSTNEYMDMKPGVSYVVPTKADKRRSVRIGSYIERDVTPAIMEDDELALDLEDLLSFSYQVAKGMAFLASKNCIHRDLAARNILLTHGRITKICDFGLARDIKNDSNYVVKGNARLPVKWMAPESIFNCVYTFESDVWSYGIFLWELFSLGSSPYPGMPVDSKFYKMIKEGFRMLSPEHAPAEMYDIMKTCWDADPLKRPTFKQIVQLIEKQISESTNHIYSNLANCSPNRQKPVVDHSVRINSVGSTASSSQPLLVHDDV

Row | IC50 | SMILES
1 | 1.8 nM | Cc1ccc(-c2nnn(C3CC(F)(F)C3)n2)cc1NC(=O)c1cnn2ccc(N3CC(O)C3)cc12 [Example 60, N-(5-(2-(3,3-difluorocyclobutyl)-2H-tetrazol-5-yl)-2-methylphenyl)-5-(3-hydroxyazetidin-1-yl)pyrazolo[1,5-a]pyridine-3-carboxamide]
2 | 161 nM | COCCOCCS(=O)(=O)N1CC(n2nnc(-c3ccc(C)c(NC(=O)c4cnn5ccccc45)c3)n2)C1 [Example 185, N-(5-(2-(1-((2-(2-methoxyethoxy)ethyl)sulfonyl)azetidin-3-yl)-2H-tetrazol-5-yl)-2-methylphenyl)pyrazolo[1,5-a]pyridine-3-carboxamide]
3 | 5.6 nM | Cc1nnn(-c2ccc(Cl)c(NC(=O)c3cnn4ccc(-c5cnn(CC(C)(C)O)c5)cc34)c2)n1 [Example 212, N-(2-chloro-5-(5-methyl-2H-tetrazol-2-yl)phenyl)-5-(1-(2-hydroxy-2-methylpropyl)-1H-pyrazol-4-yl)pyrazolo[1,5-a]pyridine-3-carboxamide]
4 | 0.6 nM | Cc1nn([C@H](C)[C@H](C)O)cc1-c1ccn2ncc(C(=O)Nc3cc(-c4nnn(C5CC5)n4)c(F)cc3Cl)c2c1 (single isomer, unassigned) [Example 289, N-(2-chloro-5-(2-cyclopropyl-2H-tetrazol-5-yl)-4-fluorophenyl)-5-(1-((2R,3S)-3-hydroxybutan-2-yl)-3-methyl-1H-pyrazol-4-yl)pyrazolo[1,5-a]pyridine-3-carboxamide or N-(2-chloro-5-(2-cyclopropyl-2H-tetrazol-5-yl)-4-fluorophenyl)-5-(1-((2S,3R)-3-hydroxybutan-2-yl)-3-methyl-1H-pyrazol-4-yl)pyrazolo[1,5-a]pyridine-3-carboxamide]
5 | 15.6 nM | COCCNc1ccn2ncc(C(=O)Nc3cc(-c4nnn([C@H]5C[C@H](CO)C5)n4)ccc3C)c2c1 [Example 201, N-(5-(2-((1r,3r)-3-(hydroxymethyl)cyclobutyl)-2H-tetrazol-5-yl)-2-methylphenyl)-5-((2-methoxyethyl)amino)pyrazolo[1,5-a]pyridine-3-carboxamide]
6 | 0.5 nM | Cc1ccc(-c2nnn(C3CC3)n2)cc1NC(=O)c1cnn2ccc(-c3cnn([C@@H](C)[C@H](C)O)c3C)cc12 (single isomer, unassigned) [Example 270, N-(5-(2-cyclopropyl-2H-tetrazol-5-yl)-2-methylphenyl)-5-(1-((2S,3S)-3-hydroxybutan-2-yl)-5-methyl-1H-pyrazol-4-yl)pyrazolo[1,5-a]pyridine-3-carboxamide or N-(5-(2-cyclopropyl-2H-tetrazol-5-yl)-2-methylphenyl)-5-(1-((2R,3R)-3-hydroxybutan-2-yl)-5-methyl-1H-pyrazol-4-yl)pyrazolo[1,5-a]pyridine-3-carboxamide]
7 | 16 nM | Cn1nnc(-c2ccc(F)c(NC(=O)c3cnn4ccc(-c5cnn(CC(C)(C)O)c5)cc34)c2)n1 [Example 213, N-(2-fluoro-5-(2-methyl-2H-tetrazol-5-yl)phenyl)-5-(1-(2-hydroxy-2-methylpropyl)-1H-pyrazol-4-yl)pyrazolo[1,5-a]pyridine-3-carboxamide]
8 | 3.6 nM | Cc1ccc(-c2nnn(C)n2)cc1NC(=O)c1cnn2ccc(-c3cnn(CC(C)(C)O)c3)cc12 [Example 48, 5-(1-(2-hydroxy-2-methylpropyl)-1H-pyrazol-4-yl)-N-(2-methyl-5-(2-methyl-2H-tetrazol-5-yl)phenyl)pyrazolo[1,5-a]pyridine-3-carboxamide]
9 | 7.5 nM | O=C(Nc1cc(-c2nnn(CC3CC(F)(F)C3)n2)ccc1Cl)c1cnn2ccccc12 [Example 19, N-(2-chloro-5-(2-((3,3-difluorocyclobutyl)methyl)-2H-tetrazol-5-yl)phenyl)pyrazolo[1,5-a]pyridine-3-carboxamide]
10 | 20.1 nM | COC(=O)N1CC(n2nnc(-c3ccc(C)c(NC(=O)c4cnn5cc(N6CCOCC6)ccc45)c3)n2)C1 [Example 159, methyl 3-(5-(4-methyl-3-(6-morpholinopyrazolo[1,5-a]pyridine-3-carboxamido)phenyl)-2H-tetrazol-2-yl)azetidine-1-carboxylate]
11 | 55.9 nM | Cc1ccc(-c2nnn(C3CN(S(C)(=O)=O)C3)n2)cc1NC(=O)c1cnn2ccc(CCC(C)(C)O)cc12 [Example 155, 5-(3-hydroxy-3-methylbutyl)-N-(2-methyl-5-(2-(1-(methylsulfonyl)azetidin-3-yl)-2H-tetrazol-5-yl)phenyl)pyrazolo[1,5-a]pyridine-3-carboxamide]
12 | 10.6 nM | COC(=O)N1CC(n2nnc(-c3ccc(Cl)c(NC(=O)c4cnn5ccccc45)c3)n2)C1 [Example 192]
13 | 6.4 nM | Cc1cc(C)c(-c2nnn(CC3CC3(F)F)n2)cc1NC(=O)c1cnn2ccccc12 (centres unmarked) [Example 21, N-(5-(2-((2,2-difluorocyclopropyl)methyl)-2H-tetrazol-5-yl)-2,4-dimethylphenyl)pyrazolo[1,5-a]pyridine-3-carboxamide]
14 | 6.5 nM | O=C(Nc1cc(-c2nnn(C3CC(F)(F)C3)n2)ccc1Cl)c1cnn2ccccc12 [Example 17, N-(2-chloro-5-(2-(3,3-difluorocyclobutyl)-2H-tetrazol-5-yl)phenyl)pyrazolo[1,5-a]pyridine-3-carboxamide]
15 | 22.7 nM | COC(=O)N1CC(n2nnc(-c3ccc(C)c(NC(=O)c4cnn5ccc(N6CCC(F)(F)C6)cc45)c3)n2)C1 [Example 67, methyl 3-(5-(3-(5-(3,3-difluoropyrrolidin-1-yl)pyrazolo[1,5-a]pyridine-3-carboxamido)-4-methylphenyl)-2H-tetrazol-2-yl)azetidine-1-carboxylate]
16 | 0.6 nM | O=C(Nc1cc(-c2nnn(C3CC3)n2)ccc1Cl)c1cnn2ccc(-c3cnn(CC4(O)CCOCC4)c3)cc12 [Example 236, N-(2-chloro-5-(2-cyclopropyl-2H-tetrazol-5-yl)phenyl)-5-(1-((4-hydroxytetrahydro-2H-pyran-4-yl)methyl)-1H-pyrazol-4-yl)pyrazolo[1,5-a]pyridine-3-carboxamide]
17 | 4.2 nM | O=C(Nc1cc(-c2nnn(CC3CC3)n2)ccc1Cl)c1cnn2ccccc12 [Example 15, N-(2-chloro-5-(2-(cyclopropylmethyl)-2H-tetrazol-5-yl)phenyl)pyrazolo[1,5-a]pyridine-3-carboxamide]
18 | 16.9 nM | Cc1ccc(-c2nnn([C@H]3C[C@H](CO)C3)n2)cc1NC(=O)c1cnn2ccccc12 [Example 200, N-(5-(2-((1r,3r)-3-(hydroxymethyl)cyclobutyl)-2H-tetrazol-5-yl)-2-methylphenyl)pyrazolo[1,5-a]pyridine-3-carboxamide]
19 | 0.7 nM | COC[C@@](C)(O)Cn1cc(-c2ccn3ncc(C(=O)Nc4cc(-c5nnn(C6CC6)n5)c(F)cc4C)c3c2)c(C)n1 (single isomer, unassigned) [Example 249, (S)-N-(5-(2-cyclopropyl-2H-tetrazol-5-yl)-4-fluoro-2-methylphenyl)-5-(1-(2-hydroxy-3-methoxy-2-methylpropyl)-3-methyl-1H-pyrazol-4-yl)pyrazolo[1,5-a]pyridine-3-carboxamide or (R)-N-(5-(2-cyclopropyl-2H-tetrazol-5-yl)-4-fluoro-2-methylphenyl)-5-(1-(2-hydroxy-3-methoxy-2-methylpropyl)-3-methyl-1H-pyrazol-4-yl)pyrazolo[1,5-a]pyridine-3-carboxamide]
20 | 45.4 nM | Cc1ccc(-c2nnn(C3CN(S(=O)(=O)C4COC4)C3)n2)cc1NC(=O)c1cnn2ccccc12 [Example 183, N-(2-methyl-5-(2-(1-(oxetan-3-ylsulfonyl)azetidin-3-yl)-2H-tetrazol-5-yl)phenyl)pyrazolo[1,5-a]pyridine-3-carboxamide]
21 | 1 nM | COCCOC[C@@H](O)Cn1cc(-c2ccn3ncc(C(=O)Nc4cc(-c5nnn(C6CC6)n5)c(F)cc4Cl)c3c2)c(C)n1 [Example 285, (S)—N-(2-chloro-5-(2-cyclopropyl-2H-tetrazol-5-yl)-4-fluorophenyl)-5-(1-(2-hydroxy-3-(2-methoxyethoxy)propyl)-3-methyl-1H-pyrazol-4-yl)pyrazolo[1,5-a]pyridine-3-carboxamide]
22 | 34.5 nM | COCCNc1ccn2ncc(C(=O)Nc3cc(-c4nnn(C)n4)ccc3C)c2c1 [Example 87, 5-((2-methoxyethyl)amino)-N-(2-methyl-5-(2-methyl-2H-tetrazol-5-yl)phenyl)pyrazolo[1,5-a]pyridine-3-carboxamide]
23 | 9.6 nM | COC(=O)N1CC(n2nnc(-c3ccc(C)c(NC(=O)c4cnn5ccc(N6CCN7CCC[C@@H]7C6)cc45)c3)n2)C1 [Example 75, methyl (R)-3-(5-(3-(5-(hexahydropyrrolo[1,2-a]pyrazin-2(1H)-yl)pyrazolo[1,5-a]pyridine-3-carboxamido)-4-methylphenyl)-2H-tetrazol-2-yl)azetidine-1-carboxylate]
24 | 1.8 nM | COCCNc1ccn2ncc(C(=O)Nc3cc(-c4nnn(C[C@H]5CC5(F)F)n4)ccc3C)c2c1 (single isomer, unassigned) [Example 124, (R)-N-(5-(2-((2,2-difluorocyclopropyl)methyl)-2H-tetrazol-5-yl)-2-methylphenyl)-5-((2-methoxyethyl)amino)pyrazolo[1,5-a]pyridine-3-carboxamide or (S)-N-(5-(2-((2,2-difluorocyclopropyl)methyl)-2H-tetrazol-5-yl)-2-methylphenyl)-5-((2-methoxyethyl)amino)pyrazolo[1,5-a]pyridine-3-carboxamide]
25 | 0.7 nM | CCn1nnc(-c2cc(NC(=O)c3cnn4ccc(-c5c(C)nn(CC(C)(C)O)c5C)cc34)c(C)cc2F)n1 [Example 246, N-(5-(2-ethyl-2H-tetrazol-5-yl)-4-fluoro-2-methylphenyl)-5-(1-(2-hydroxy-2-methylpropyl)-3,5-dimethyl-1H-pyrazol-4-yl)pyrazolo[1,5-a]pyridine-3-carboxamide]
26 | 7.4 nM | Cn1nnc(-c2ccc(Cl)c(NC(=O)c3cnn4ccc(-c5cnn(CC(C)(C)O)c5)cc34)c2)n1 [Example 210, N-(2-chloro-5-(2-methyl-2H-tetrazol-5-yl)phenyl)-5-(1-(2-hydroxy-2-methylpropyl)-1H-pyrazol-4-yl)pyrazolo[1,5-a]pyridine-3-carboxamide]
